This experiment has as its target T1, Human Polθ polymerase domain (aa1820-2590) (Homo sapiens, UniProt O75417).
T1 construct: Human Polθ polymerase domain (aa1820-2590) was expressed in E. coli; made in house; host or cells: E. coli
T1 sequence (O75417 1820-2590): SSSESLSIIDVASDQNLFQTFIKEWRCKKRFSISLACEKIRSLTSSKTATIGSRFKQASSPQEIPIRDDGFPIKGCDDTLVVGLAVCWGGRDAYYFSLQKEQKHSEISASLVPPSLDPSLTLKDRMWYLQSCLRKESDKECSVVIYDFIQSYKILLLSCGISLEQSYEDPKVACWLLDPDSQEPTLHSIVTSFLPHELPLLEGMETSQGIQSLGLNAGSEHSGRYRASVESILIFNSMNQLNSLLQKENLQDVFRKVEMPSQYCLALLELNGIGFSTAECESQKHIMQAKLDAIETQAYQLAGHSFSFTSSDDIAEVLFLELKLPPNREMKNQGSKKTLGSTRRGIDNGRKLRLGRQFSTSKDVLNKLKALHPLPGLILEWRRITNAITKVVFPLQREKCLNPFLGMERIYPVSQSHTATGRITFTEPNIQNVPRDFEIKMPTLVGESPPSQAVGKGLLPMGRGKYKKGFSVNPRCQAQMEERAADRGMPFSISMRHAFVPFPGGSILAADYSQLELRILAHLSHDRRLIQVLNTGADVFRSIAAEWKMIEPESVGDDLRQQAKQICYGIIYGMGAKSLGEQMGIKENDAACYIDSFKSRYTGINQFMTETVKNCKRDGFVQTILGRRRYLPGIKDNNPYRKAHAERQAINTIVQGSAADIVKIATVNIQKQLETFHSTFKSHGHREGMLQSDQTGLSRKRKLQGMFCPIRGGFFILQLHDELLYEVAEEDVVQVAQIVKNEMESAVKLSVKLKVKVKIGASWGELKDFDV
As to the kind of experiment: Polθ Polymerase Domain Kinact/KI Assay (PicoGreen). The experiment is classed as biochemical. To be noted: 0.8 nM Polθ, 100 nM DNA substrate, kobs vs [I] fit for 2-step covalent inhibitor. In outline:
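Covalent Kinact/KI by PicoGreen DNA synthesis readout: E. coli-expressed Polθ polymerase domain (0.8 nM), 100 nM annealed DNA substrate, […], Tris pH 7.5 buffer with DTT, 1% DMSO; EDTA-stopped over 0–60 min time course. kobs from progress curves, then kobs vs [I] fit to two-step covalent model.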

Each structure is given as a SMILES string.

On to `C=CC(=O)N1CC2(C1)NCCN(CCN1C[C@H]3CC(=O)N(c4cc(C(F)(F)F)cc(C)n4)[C@@H]3C(=O)N(C)c3cccc(F)c31)[C@H]2C` (racemic) [Example 34a, (3aR,11aS)-5-(2-((S/R)-2-acryloyl-9-methyl-2,5,8-triazaspiro[3.5]nonan-8-yl)ethyl)-6-fluoro-10-methyl-1-(6-methyl-4-(trifluoromethyl)pyridin-2-yl)-1,3a,4,5, 10,11a-hexahydro-2H-benzo[b]pyrrolo [2,3-f][1,4]diazocine-2,11(3H)-dione], for which the Kinact/Kl is 1.2e+06 M⁻¹ s⁻¹.

On to `C=CC(=O)N1CC2(CN(CCN3C[C@H]4CC(=O)N(c5cc(C(F)(F)F)cc(C)n5)[C@@H]4C(=O)N(C)c4cccc(C)c43)CC2(C)C#N)C1` (single isomer, unassigned) [Example 119a], for which the Kinact/Kl is 4.57e+06 M⁻¹ s⁻¹.

`C=CC(=O)N1CC(N(C)C[C@H](O)CN2C[C@H]3CC(=O)N(c4cc(C(F)(F)F)cc(C)n4)[C@@H]3C(=O)N(C)c3cccc(Cl)c32)C1` (racemic) [Example 68, (3aR,11aS)-5-((S/R)-3-((1-acryloylazetidin-3-yl)(methyl)amino)-2-hydroxypropyl)-6-chloro-10-methyl-1-(6-methyl-4-(trifluoromethyl)pyridin-2-yl)-1,3a,4,5,10,11a-hexahydro-2H-benzo[b]pyrrolo[2,3-f][1,4]diazocine-2,11(3H)-dione] returned a Kinact/Kl of 660000 M⁻¹ s⁻¹.

Molecule `Cc1cc(C(F)(F)F)cc(N2C(=O)C[C@@H]3CN(Cc4ccc(CNC(=O)/C=C/CN(C)C)cc4)c4c(C)cccc4N(C)C(=O)[C@H]32)n1` [Example 177, (E)-N-(4-(((3aR, 11aS)-6,10-dimeth-yl-1-(6-methyl-4-(trifluoromethyl)-pyridin-2-yl)-2,11-dioxo-1,2,3,3a,4, 10,11,11a-octa-hydro-5H-benzo[b]pyrrolo[2,3-f][1,4]diazocin-5-yl)-methyl)benzyl)-4-(dimethylamino)-but-2-enamide] yielded a Kinact/Kl of 260000 M⁻¹ s⁻¹.

In the case of `C=CC(=O)N1C[C@@H](F)[C@@H](n2cnc(CN3C[C@H]4CC(=O)N(c5cc(C(F)(F)F)cc(C)n5)[C@@H]4C(=O)N(C)c4cccc(C)c43)c2)C1` (single isomer, unassigned) [Example 326a], the Kinact/Kl was found to be 450000 M⁻¹ s⁻¹.

In the case of `C=CC(=O)N1CC(N2CCN(CCN3C[C@H]4CC(=O)N(c5cc(C(F)(F)F)cc(C)n5)[C@@H]4C(=O)N(C)c4cccc(F)c43)C[C@H](F)C2)C1` [Example 29, (3aR,11aS)-5-(2-((S)-4-(1-acryloylazetidin-3-yl)-6-fluoro-1,4-diazepan-1-yl)ethyl)-6-fluoro-10-methyl-1-(6-methyl-4-(trifluoromethyl)pyridin-2-yl)-1,3a,4,5,10,11a-hexahydro-2H-benzo[b]pyrrolo[2,3-f][1,4]diazocine-2,11(3H)-dione], the Kinact/Kl stood at 320000 M⁻¹ s⁻¹.

In turn, `C=CC(=O)N1Cc2nc(CN3C[C@H]4CC(=O)N(c5cc(C(F)(F)F)cc(C)n5)[C@@H]4C(=O)N(C)c4cccc(Cl)c43)cn2CC1C(F)F` (mixture of isomers) [Example 243b, (3aR,11aS)-5-(((R/S)-7-acryloyl-6-(difluoromethyl)-5,6,7,8-tetrahydroimidazo[1,2-a]pyrazin-2-yl)methyl)-6-chloro-10-methyl-1-(6-methyl-4-(trifluoromethyl)pyridin-2-yl)-1,3a,4,5,10,11a-hexahydro-2H-benzo[b]pyrrolo[2,3-f][1,4]diazocine-2,11(3H)-dione] gave a Kinact/Kl of 580000 M⁻¹ s⁻¹.

As to `C=CC(=O)N1CC2(CN(CCN3C[C@H]4CC(=O)N(c5cc(C(F)(F)F)cc(C)n5)[C@@H]4C(=O)N(C)c4cccc(Cl)c43)CC3COCCN32)C1` (single isomer, unassigned) [Example 26a], the Kinact/Kl is 690000 M⁻¹ s⁻¹.

As to `Cc1cc(C(F)(F)F)cc(N2C(=O)C[C@@H]3CN(Cc4ccc5c(c4)CCN(C(=O)/C=C/CN(C)C)C5)c4c(F)cccc4N(C)C(=O)[C@H]32)n1` [Example 149, (3aR, 11aS)-5-((2-((E)-4-(dimethylamino)but-2-enoyl)-1,2,3,4-tetrahydroisoquinolin-6-yl)methyl)-6-fluoro-10-methyl-1-(6-methyl-4-(trifluoromethyl)pyridin-2-yl)-1,3a,4,5,10,11a-hexahydro-2H-benzo[b]pyrrolo[2,3-f][1,4]diazocine-2,11(3H)-dione], the Kinact/Kl worked out at 1.08e+06 M⁻¹ s⁻¹.

Regarding `C=CC(=O)N1CCn2cc(CN3C[C@H]4CC(=O)N(c5cc(C(F)(F)F)cc(C)n5)[C@@H]4C(=O)N(C)c4cccc(F)c43)nc2C1` [Example 132, (3aR,11aS)-5-((7-acryloyl-5,6,7,8-tetrahydroimidazo[1,2-a]pyrazin-2-yl)methyl)-6-fluoro-10-methyl-1-(6-methyl-4-(trifluoromethyl)pyridin-2-yl)-1,3a,4,5,10,11a-hexahydro-2H-benzo[b]pyrrolo[2,3-f][1,4]diazocine-2,11(3H)-dione], the Kinact/Kl is 1.86e+06 M⁻¹ s⁻¹.

Take `C=CC(=O)N1CCN(c2cccc(N3C[C@H]4CC(=O)N(c5cc(C(F)(F)F)cc(C)n5)[C@@H]4C(=O)N(C)c4cccc(F)c43)n2)CC1` [Example 55, (3aR,11aS)-5-(6-(4-acryloylpiperazin-1-yl)pyridin-2-yl)-6-fluoro-10-methyl-1-(6-methyl-4-(trifluoromethyl)pyridin-2-yl)-1,3a,4,5,10,11a-hexahydro-2H-benzo[b]pyrrolo[2,3-f][1,4]diazocine-2,11(3H)-dione]: the Kinact/Kl is 15000 M⁻¹ s⁻¹.

`C=C(CN(C)C)C(=O)NCCOCCN1C[C@H]2CC(=O)N(c3cc(C(F)(F)F)cc(C)n3)[C@@H]2C(=O)N(C)c2cccc(C)c21` [Example 85, N-(2-(2-((3aR,11aS)-6,10-dimethyl-1-(6-methyl-4-(trifluoromethyl)pyridin-2-yl)-2,11-dioxo-1,2,3,3a,4,10,11,11a-octahydro-5H-benzo[b]pyrrolo[2,3-f][1,4]diazocin-5-yl)ethoxy)ethyl)-2-((dimethylamino)methyl)acrylamide] came in with a Kinact/Kl of 1.82e+06 M⁻¹ s⁻¹.

`C=CC(=O)NC1CCN(CCN2C[C@H]3CC(=O)N(c4cc(C(F)(F)F)cc(C)n4)[C@@H]3C(=O)N(C)c3cccc(Cl)c32)CC1(F)F` (mixture of isomers) [Example 257b, N—((R/S)-1-(2-((3aR,11aS)-6-chloro-10-methyl-1-(6-methyl-4-(trifluoromethyl)pyridin-2-yl)-2,11-dioxo-1,2,3,3a,4,10,11,11a-octahydro-5H-benzo[b]pyrrolo[2,3-f][1,4]diazocin-5-yl)ethyl)-3,3-difluoropiperidin-4-yl)acrylamide] yielded a Kinact/Kl of 2.56e+06 M⁻¹ s⁻¹.

Molecule `C=CC(=O)N1CCn2c(nnc2CN2C[C@H]3CC(=O)N(c4cc(C(F)(F)F)cc(C)n4)[C@@H]3C(=O)N(C)c3cccc(F)c32)C1` [Example 134, (3aR,11aS)-5-((7-acryloyl-5,6,7,8-tetrahydro-[1,2,4]triazolo[4,3-a]pyrazin-3-yl)methyl)-6-fluoro-10-methyl-1-(6-methyl-4-(trifluoromethyl)pyridin-2-yl)-1,3a,4,5,10,11a-hexahydro-2H-benzo[b]pyrrolo[2,3-f][1,4]diazocine-2,11(3H)-dione] returned a Kinact/Kl of 62000 M⁻¹ s⁻¹.

`C=C(CN1CCN(C)CC1)C(=O)N1CC(CCCCN2C[C@H]3CC(=O)N(c4cc(C(F)(F)F)cc(C)n4)[C@@H]3C(=O)N(C)c3cccc(Cl)c32)C1` [Example 167, (3aR,11aS)-6-chloro-10-methyl-1-(6-methyl-4-(trifluoromethyl)pyridin-2-yl)-5-(4-(1-(2-((4-methylpiperazin-1-yl)methyl)acryloyl)azetidin-3-yl)butyl)-1,3a,4,5,10,11a-hexahydro-2H-benzo[b]pyrrolo[2,3-f][1,4]diazocine-2,11(3H)-dione]: the Kinact/Kl was 4.66e+06 M⁻¹ s⁻¹.

Regarding `C=CC(=O)N1CCn2nc(CN3C[C@H]4CC(=O)N(c5cc(C(F)(F)F)cc(C)n5)[C@@H]4C(=O)N(C)c4cccc(C)c43)nc2C1` [Example 202, (3aR,11aS)-5-((7-acryloyl-5,6,7,8-tetrahydro-[1,2,4]triazolo [1,5-a]pyrazin-2-yl)methyl)-6,10-dimethyl-1-(6-methyl-4-(trifluoromethyl)pyridin-2-yl)-1,3a,4,5,10,11a-hexahydro-2H-benzo[b]pyrrolo [2,3-f][1,4]diazocine-2,11(3H)-dione], the Kinact/Kl turned out to be 5.56e+06 M⁻¹ s⁻¹.

Regarding `C=CC(=O)N1CC(c2cccc(CN3C[C@H]4CC(=O)N(c5cc(C(F)(F)F)cc(C)n5)[C@@H]4C(=O)N(C)c4cccc(F)c43)n2)C1` [Example 128, (3aR,11aS)-5-((6-(1-acryloylazetidin-3-yl)pyridin-2-yl)methyl)-6-fluoro-10-methyl-1-(6-methyl-4-(trifluoromethyl)pyridin-2-yl)-1,3a,4,5,10,11a-hexahydro-2H-benzo[b]pyrrolo[2,3-f][1,4]diazocine-2,11(3H)-dione], the Kinact/Kl came to 660000 M⁻¹ s⁻¹.
